Source: patent publication US11655492B2, “Activated formylglycine-generating enzymes and methods of producing and using the same” (R.P. Scherer Technologies, LLC, priority 2015, dated 2023)
Several values for one entry are separate records, joined by “and”; a condition that tells them apart may be missing. Equal entries are not always repeated. Where two headings read alike, the source gives them in different places.

How the values were obtained:
[1] = biological target: T1, FGE (Homo sapiens, UniProt Q8NBK3); assay: FGE reaction mixtures with reductants or additives (product formation); format: biochemical; settings: reducing agent used as stoichiometric reductant, in large excess
T1 construct: made in house
T1 sequence (Q8NBK3 with tags, fused parts or gaps isoform Q8NBK3-4): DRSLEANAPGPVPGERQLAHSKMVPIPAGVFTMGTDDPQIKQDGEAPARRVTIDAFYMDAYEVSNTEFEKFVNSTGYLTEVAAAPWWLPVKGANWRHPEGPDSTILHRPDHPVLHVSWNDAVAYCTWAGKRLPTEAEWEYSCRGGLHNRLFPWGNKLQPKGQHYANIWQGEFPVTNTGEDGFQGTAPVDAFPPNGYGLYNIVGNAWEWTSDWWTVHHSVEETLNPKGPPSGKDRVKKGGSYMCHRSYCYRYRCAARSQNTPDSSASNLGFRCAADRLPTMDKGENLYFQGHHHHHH
Description: The specific activity of FGE was measured using a discontinuous enzymatic activity assay. […] The rate of reaction was determined by integrating the peak areas at 215 nm of the substrate cysteine (Csub) and product (fGly) peptides on reversed-phase HPLC. […] Each aqueous reaction solution (120 μL) contained Csub (100 μM), FGE (0.1-1 μM), DTT (1 mM), and buffer (25 mM TEAM, pH 9). A single time course included 5 data points collected at evenly spaced intervals. The reaction was initiated upon addition of FGE stock solution and vortexing for 3 s. The reaction vial was vortexed at 1,500 RPM and 25° C. in a thermomixer R (Eppendorf). Time points were hand quenched by adding 20 μL of reaction mixture to 2 μL of 1 M HCl using a micropipettor. After completion of the reaction, each time point was analyzed by RP-HPLC (see below).
The conversion of Cys to fGly used a 2 H^+/2 e^− oxidation of the substrate Cys thiol as well as exchange of sulfur for oxygen. […] However, because O2 is a 4 H^+/4 e^− acceptor, a reducing agent was used to provide a second equivalent of 2 H^+ and 2 e^−, completing the reduction from O2 to 2 mol H2O. […] A mixture of reductant (DTT) and O2 was used for routine activity measurements.

[2] = as measured versus glutathione disulfide; cited from earlier work
[3] = biological target: Sc-FGE (Streptomyces coelicolor, UniProt Q9F3C7); format: biochemical, S. coelicolor
Chain of Sc-FGE (Q9F3C7 whole entry): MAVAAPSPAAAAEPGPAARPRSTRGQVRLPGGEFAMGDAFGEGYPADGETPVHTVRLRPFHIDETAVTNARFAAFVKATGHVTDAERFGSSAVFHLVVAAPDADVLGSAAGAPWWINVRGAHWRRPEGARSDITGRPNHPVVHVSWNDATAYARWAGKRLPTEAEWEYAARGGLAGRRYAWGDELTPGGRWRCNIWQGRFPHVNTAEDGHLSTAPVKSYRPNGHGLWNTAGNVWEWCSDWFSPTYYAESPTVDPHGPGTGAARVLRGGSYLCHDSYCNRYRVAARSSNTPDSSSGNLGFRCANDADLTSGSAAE

[4] = biological target: T2, Hs-cFGE (Homo sapiens, UniProt Q8NBK3)
T2 sequence (Q8NBK3 with tags, fused parts or gaps isoform Q8NBK3-4): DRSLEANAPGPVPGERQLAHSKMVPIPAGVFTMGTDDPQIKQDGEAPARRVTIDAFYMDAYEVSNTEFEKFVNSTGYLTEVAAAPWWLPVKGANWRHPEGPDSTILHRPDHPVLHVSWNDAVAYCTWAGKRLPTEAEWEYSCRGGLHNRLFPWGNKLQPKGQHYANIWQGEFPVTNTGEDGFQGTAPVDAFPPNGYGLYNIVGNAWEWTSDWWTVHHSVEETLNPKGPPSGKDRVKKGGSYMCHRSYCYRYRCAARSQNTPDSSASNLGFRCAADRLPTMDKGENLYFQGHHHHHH

[5] = tested on: SQR
Description: A Western blotting was performed on lysates from cells treated with Cu^2+ or not treated with Cu^2+, using antibodies against SQR to determine whether Cu^2+ increased the levels of SQR. […] Experiments were also performed to test whether overexpression of SQR in Expi cells could be a substitute for Cu^2+ in increasing conversion.

[6] = tested on: CT-1.1 tagged Her2; assay: 293 Expi transient co-transfection of FGE form and CT tagged antibody, conversion by mass-spectrometry; format: cell-based
Description: A 293 Expi transient co-transfection system (Life Technologies) was used for producing antibodies having a formylglycine residue at a selected site. The system produced high antibody titers (100-500 mg/L) with variable (10-95%) conversion. […] Expi 293F that were treated with or without 50 μM copper sulfate prior to transfection were transiently co-transfected in three independent experiments with expression plasmids for full-length human FGE with an N-terminal KDEL (SEQ ID NO:7) amino acid sequence (+KDEL) and CT tagged antibody at a ratio of 3:1 antibody:FGE DNA. The culture was harvested at 5-6 days post transfection, titer assessed by ELISA, and the protein was purified and conversion was measured by mass-spectrometry.
Expi 293F cells that were treated with or without 50 μM copper sulfate prior to transfection were transiently co-transfected with expression plasmids for various forms of human FGE (+KDEL, WT, myc-His) and CT tagged antibody at a ratio of 3:1 antibody:FGE DNA. The culture was harvested at 5 days post transfection, titer assessed by ELISA, the protein was purified and conversion was measured by mass-spectrometry.

[7] = tested on: CHO cells
[8] = tested on: ATP production; assay: ATP production dose response (Cell titerglo, 4 hour treatment); format: cell-based
Description: (§2) Several experiments were run treating cells with DCA at several concentrations (DCA: 0 μM; 16 μM; 80 μM; 400 μM; 2000 μM; 10,000 μM; and 50,000 μM) and treating cells with Cu^2+ (copper sulfate) and rotenone (Rotenone: 0 nM; 5 nM; 24 nM; 120 nM; 600 nM; 3000 nM; and 15,000 nM) at several concentrations. Cells were plated and 10 μL of DCA or rotenone was added for a 4 hour treatment. Cells were equilibrated to room temperature 100 μL/well of Cell titerglo reagent (Promega) was added to each well. The plates were shaken of 2 min, incubated at room temperature for 10 min, and then read on a plate reader.

[9] = biological target: human FGE (Homo sapiens, UniProt Q8NBK3); assay: Effect of stimulators and inhibitors of oxidative phosphorylation on conversion; format: cell-based; settings: DCA 0-50,000 μM; rotenone 0-15,000 nM with Cu^2+
Chain of human FGE (Q8NBK3 34-374): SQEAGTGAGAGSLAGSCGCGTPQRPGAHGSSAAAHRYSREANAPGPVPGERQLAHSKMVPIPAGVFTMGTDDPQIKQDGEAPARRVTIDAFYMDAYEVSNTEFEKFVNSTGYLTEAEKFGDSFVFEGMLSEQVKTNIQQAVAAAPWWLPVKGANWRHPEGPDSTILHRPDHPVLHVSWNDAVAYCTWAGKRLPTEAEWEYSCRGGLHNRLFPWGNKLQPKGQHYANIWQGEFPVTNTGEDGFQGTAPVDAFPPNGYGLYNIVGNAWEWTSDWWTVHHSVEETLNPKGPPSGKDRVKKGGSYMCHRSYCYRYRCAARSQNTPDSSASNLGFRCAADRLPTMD
Description: Experiments were performed to determine the effect of stimulators and inhibitors of oxidative phosphorylation on conversion efficiency for human FGE, as compared to Cu^2+.
as §2

[10] = tested on: IgG containing the aldehyde tag; assay: In vitro conversion of intact mAb with FGE, fGly by LC-MRM/MS; format: biochemical
Description: DTT (20 mM) was added to a solution of mAb (20 μg) in buffered aqueous solution (25 mM NH4HCO3) to a final volume of 20 μL. The tube containing the sample was incubated at 37° C. for 15 min at 1500 RPM. Then, HCl (50 mM) was added to the solution and the tube was vortexed until mixed. Next, ammonium bicarbonate (100 mM) was added to the solution and the tube was vortexed until mixed. Trypsin (1 μg) and iodoacetamide (50 mM) were added, and the tube was incubated at 37° C. and 1500 RPM for 60 min in the dark. Finally, sodium citrate (150 mM, pH 5.5) and methoxylamine (100 mM) were added to the solution, and the tube was incubated at 37° C. for 16 h. The processed sample was then analyzed by LC-MRM/MS. The MRM transitions included modifications of the Cys-containing peptide including: cysteine, cysteine modified with iodoacetamide, formylglycine, formylglycine hydrate (including loss of water in the collision cell), and formylglycine methyl oxime. The abundance of each species was defined by its 5 most intense precursor/product ion pairs, which were integrated to give the total signal and relative fractions of each component. In the optimized digestion and capping procedure described above, unreacted Cys, fGly, or fGly-hydrate above background was not detected, observing only carboxyacetamidomethyl Cys (CAM) and the methyl oxime of fGly (MeOx). […]

[11] = tested on: 14 amino acid peptide ALCTPSRGSLFTGR (SEQ ID NO:8); assay: Discontinuous FGE activity assay on peptide substrate (RP-HPLC); format: biochemical
Description: [formula] where Et is the total enzyme in solution, and kcat and KM are the standard enzymatic parameters specified by the STRENDA commission. Units of enzyme specific activity are the katal, where 1 kat=1 mol·s^−1. Kinetic parameters were determined from nonlinear regression of [substrate] v. initial velocity using GraphPad prism.
The specific activity of FGE was measuring using a discontinuous enzymatic activity assay. The substrate for FGE was a 14 amino acid peptide containing the consensus sequence (H2N-[…]-COOH (SEQ ID NO:8)). The rate of reaction was determined by integrating the peak area at 215 nm of the starting material (Cys) and product (fGly) containing peptides on reversed-phase HPLC. The identity of product (and side product) peaks were determined by RP-HPLC MS/MS. Each aqueous reaction solution (60 μL) contained substrate peptide (100 μM), FGE (1 μM), DTT (1 mM), and buffer (25 mM triethanolamine, pH 9). A single time course consisted of 5 data points collected every 2 minutes. The reaction was initiated upon addition of FGE stock solution and vortexing for 3 s. Time points were quenched by diluting 10 μL of reaction mixture into 1 μL of 1 M HCl by hand with a micropipettor. After completion of the reaction, each time point was analyzed by RP-HPLC.
(§1) Substrate, product, and side products of the FGE substrate peptide […] (SEQ ID NO:8) were separated on RP-HPLC over 7 min with isocratic 18% MeCN in water containing 0.1% TFA. The integrated area of the fGly (2.1 min), Cys (3.3 min), βME-DS (3.6 min), and Cys-DS (6.2 min) forms of the substrate were used to calculate total area and each fraction thereof.
The specific activity of FGE was measured using a discontinuous enzymatic activity assay. The substrate for FGE was a 14 amino acid peptide containing the CXPXR consensus sequence ([…] (SEQ ID NO:8)). The rate of reaction was determined by integrating the peak areas at 215 nm of the substrate cysteine (Csub) and product (fGly) peptides on reversed-phase HPLC. The identities of product (and side product) peaks were determined by RP-HPLC MS/MS (see below). Each aqueous reaction solution (120 μL) contained Csub (100 μM), FGE (0.1-1 μM), DTT (1 mM), and buffer (25 mM TEAM, pH 9). A single time course included 5 data points collected at evenly spaced intervals. The reaction was initiated upon addition of FGE stock solution and vortexing for 3 s. The reaction vial was vortexed at 1,500 RPM and 25° C. in a thermomixer R (Eppendorf). Time points were hand quenched by adding 20 μL of reaction mixture to 2 μL of 1 M HCl using a micropipettor. After completion of the reaction, each time point was analyzed by RP-HPLC (see below).
as §1, with “integrated areas” for “integrated area”, “min), Csub” for “min), Cys”, “min), the Csub/βME disulfide (Csub-βME, 3.6” for “min), βME-DS (3.6”, “and substrate/substrate disulfide (Csub-Csub, 6.1” for “and Cys-DS (6.2”
Individual FGE reactions were initiated by rapidly mixing FGE into a premixed buffered solution of Csub and reducing agent. It was assumed that all buffered solutions contained oxygen at ˜270 μM at 25° C. (based upon Henry's law). Time points were chemically quenched by hand with HCl. […]. The identities of both the Cys- and fGly-containing peptides were confirmed by LC-MS/MS (FIG. 11). These assignments were then correlated with HPLC retention times (FIG. 14, panel a). The integrated peak areas of substrate and product were used to calculate the initial velocity of FGE (FIG. 14, panel b) using the method described by Boeker (Biochem. J., (1984), 223, 15; and Biochem. J., (1985), 226, 29).

[12] = nonlinear regression to Michaelis-Menten equation

## O[C@H](CS)[C@H](O)CS (racemic) [DTT, dithiothreitol]
[1]
  rate of product formation: 3.27 min⁻¹
[2]
  thiol-disulfide exchange rate constant k: 6×10^5
[3]; activated Sc-FGE, reductant and/or chelator, 15 mM each, 1 h, 37° C.
  effect of pretreatment of activated enzyme on specific activity: do not change
[3]; excess (100 molar equiv), 1 h at 25° C., reagent removed by gel filtration
  effect of pretreatment on specific activity: did not change
[4]; 20 mM reducing agent on activated Hs-cFGE
  effect of treatment on specific activity: unchanged specific activity

## O=S(=O)([O-])[O-].[Cu+2] [Cu^2+, copper(II) sulfate]
[5]
  levels of SQR: No significant difference
[6]
  effect on conversion: enhances conversion
[7]
  cell viability: does not significantly change

## C=C(C)[C@H]1Cc2c(ccc3c2O[C@@H]2COc4cc(OC)c(OC)cc4[C@@H]2C3=O)O1 [rotenone, Rotenone]
[8]
  ATP production: affected ATP production as expected
[9]
  effect on conversion: no effect on conversion

## O=C(O)CCP(CCC(=O)O)CCC(=O)O [TCEP, tris(carboxyethyl)phosphine]
[3]
  effect of pretreatment of activated enzyme on specific activity: do not change
[4]
  effect of treatment on specific activity: unchanged specific activity

## OCCS [βME, β-mercaptoethanol]
[1]
  rate of product formation: 5.07 min⁻¹
[2]
  thiol-disulfide exchange rate constant k: 1

B1: Hs-cFGE: catalytic core of H. sapiens FGE with C-terminal His6 tag (SEQ ID NO. 11), expressed in Hi5 insect cells (protein)
chain: DRSLEANAPGPVPGERQLAHSKMVPIPAGVFTMGTDDPQIKQDGEAPARRVTIDAFYMDAYEVSNTEFEKFVNSTGYLTEVAAAPWWLPVKGANWRHPEGPDSTILHRPDHPVLHVSWNDAVAYCTWAGKRLPTEAEWEYSCRGGLHNRLFPWGNKLQPKGQHYANIWQGEFPVTNTGEDGFQGTAPVDAFPPNGYGLYNIVGNAWEWTSDWWTVHHSVEETLNPKGPPSGKDRVKKGGSYMCHRSYCYRYRCAARSQNTPDSSASNLGFRCAADRLPTMDKGENLYFQGHHHHHH
[10]; after in vitro conversion
  fGly content in the antibody: 95-100%
[10]; in vitro conversion of aldehyde tagged mAb
  conversion yield from Cys to fGly: 90-100% and > 90%
[11]; 5 molar equiv of CuSO4, 1 h at 25° C., activated vs as purified
  increase of specific activity on activation: 3
[11]; after activation with 5 molar equiv of CuSO4, 1 h at 25° C., excess copper removed
  specific activity: 3,050±115 pkat·mg^−1
[11]; as purified from cell culture, not activated
  specific activity: 1,143 pkat·mg^−1 and 1,143±84 pkat·mg^−1
[11]; from kcat/KM
  efficiency relative to bacterial counterpart (Sc-FGE): approximately 10 fold
[11]; [12]
  Km: 340 nM
  kcat: 6.06 min⁻¹
